Source: the supplement of paper PMC10307832

Tests used:
Assay in all cases: relative viability (nuclei count vs DMSO), 5 days (fraction); higher = more cells survive
Cediranib + Olaparib = compound: COc1cc2c(Oc3ccc4[nH]c(C)cc4c3F)ncnc2cc1OCCCN1CCCC1 [Cediranib] + O=C(c1cc(Cc2n[nH]c(=O)c3ccccc23)ccc1F)N1CCN(C(=O)C2CC2)CC1 [Olaparib] (partner 8 µM)
Method in brief: (§1)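 After 5 days of treatment, lung cancer cells in 1536-well plates were fixed and stained in a single step (final 0.05% Triton X-100, 1% formaldehyde, 1 ug/ml Hoechst) and their nuclei counted on 4× images. Treatment had been applied by pin tool the day after seeding as one drug alone or as a fixed anchor-drug dose with five library-drug doses (not always all listed) in √10 steps. Relative viability is the nuclei count of treated wells divided by that of vehicle wells, and values are medians of duplicate plates.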

Decitabine + Trametinib = compound: Nc1ncn([C@H]2C[C@H](O)[C@@H](CO)O2)c(=O)n1 [Decitabine] + CC(=O)Nc1cccc(-n2c(=O)n(C3CC3)c(=O)c3c(Nc4ccc(I)cc4F)n(C)c(=O)c(C)c32)c1 [Trametinib] (partner 0.02 µM)
Method in brief: as §1

Decitabine + Olaparib = compound: Nc1ncn([C@H]2C[C@H](O)[C@@H](CO)O2)c(=O)n1 [Decitabine] + O=C(c1cc(Cc2n[nH]c(=O)c3ccccc23)ccc1F)N1CCN(C(=O)C2CC2)CC1 [Olaparib] (partner 8 µM)
Method in brief: as §1

Cediranib + Pemetrexed = compound: COc1cc2c(Oc3ccc4[nH]c(C)cc4c3F)ncnc2cc1OCCCN1CCCC1 [Cediranib] + Nc1nc2[nH]cc(CCc3ccc(C(=O)N[C@@H](CCC(=O)O)C(=O)O)cc3)c2c(=O)[nH]1 [Pemetrexed] (partner 0.2 µM)
Method in brief: as §1

Row | Cell Line | relative viability (Cediranib + Olaparib; first compound 0.04 µM) | relative viability (Cediranib + Olaparib; first compound 0.1265 µM) | relative viability (Cediranib + Olaparib; first compound 0.4 µM) | relative viability (Cediranib + Olaparib; first compound 1.265 µM) | relative viability (Cediranib + Olaparib; first compound 4 µM) | relative viability (Decitabine + Trametinib; first compound 0.04 µM) | relative viability (Decitabine + Trametinib; first compound 0.1265 µM) | relative viability (Decitabine + Trametinib; first compound 0.4 µM) | relative viability (Decitabine + Trametinib; first compound 1.265 µM) | relative viability (Decitabine + Trametinib; first compound 4 µM) | relative viability (Decitabine + Olaparib; first compound 0.04 µM) | relative viability (Decitabine + Olaparib; first compound 0.1265 µM) | relative viability (Decitabine + Olaparib; first compound 0.4 µM) | relative viability (Decitabine + Olaparib; first compound 1.265 µM) | relative viability (Decitabine + Olaparib; first compound 4 µM) | relative viability (Cediranib + Pemetrexed; first compound 0.04 µM) | relative viability (Cediranib + Pemetrexed; first compound 0.1265 µM) | relative viability (Cediranib + Pemetrexed; first compound 0.4 µM) | relative viability (Cediranib + Pemetrexed; first compound 1.265 µM) | relative viability (Cediranib + Pemetrexed; first compound 4 µM)
1 | NCI-H358 | 0.659 | 0.66 | 0.503 | 0.64 | 0.666 | 0.132 | 0.124 | 0.137 | 0.121 | 0.126 | 0.27 | 0.182 | 0.165 | 0.1 | 0.106 | 0.176 | 0.198 | 0.168 | 0.17 | 0.187
2 | SW 900 | 0.915 | 0.845 | 0.794 | 0.899 | 0.925 | 0.389 | 0.435 | 0.288 | 0.262 | 0.288 | 0.563 | 0.365 | 0.329 | 0.228 | 0.208 | 0.52 | 0.509 | 0.463 | 0.46 | 0.537
3 | NCI-H1792 |  | 0.713 | 0.321 | 0.435 | 0.557 | 0.432 | 0.359 | 0.477 | 0.257 | 0.193 | 0.211 | 0.288 | 0.148 | 0.0819 | 0.116 |  | 1.13 | 0.567 | 0.742 | 0.796
4 | NCI-H1355 | 0.689 | 0.727 | 0.723 | 0.787 | 0.784 | 0.371 | 0.382 | 0.337 | 0.224 | 0.248 | 0.33 | 0.348 | 0.245 | 0.194 | 0.195 | 1.13 | 1.06 | 0.95 | 1.02 | 1.08
5 | SK-LU-1 | 0.617 | 0.488 | 0.426 | 0.462 | 0.497 | 0.443 | 0.528 | 0.386 | 0.45 | 0.365 | 0.274 | 0.244 | 0.214 | 0.247 | 0.253 | 1.11 | 1.01 | 0.969 | 0.956 | 1.18
6 | NCI-H2228 | 0.801 | 1.02 | 0.642 | 0.707 | 0.556 | 0.396 | 0.394 | 0.358 | 0.198 | 0.204 | 0.194 | 0.235 | 0.104 | 0.145 | 0.157 | 0.351 | 0.346 | 0.359 | 0.325 | 0.325
7 | NCI-H2170 | 0.575 |  | 0.533 | 0.598 | 0.726 | 0.651 | 0.639 | 0.587 | 0.41 | 0.282 | 0.271 | 0.201 | 0.216 | 0.137 | 0.134 | 0.295 |  | 0.233 | 0.264 | 0.258
8 | NCI-H2347 | 0.571 | 0.675 | 0.59 | 0.577 | 0.619 | 0.295 | 0.334 | 0.267 | 0.257 | 0.287 | 0.528 | 0.578 | 0.469 | 0.464 | 0.424 | 0.397 | 0.353 | 0.425 | 0.454 | 0.44
9 | A-427 | 0.802 |  | 0.668 | 0.67 | 0.753 | 0.594 | 0.677 | 0.461 | 0.394 | 0.401 | 0.474 | 0.443 | 0.281 | 0.248 | 0.217 | 0.921 |  | 0.955 | 0.962 | 1.08
10 | HCC-366 | 0.413 | 0.354 | 0.392 | 0.362 | 0.395 | 0.361 | 0.334 | 0.258 | 0.12 | 0.109 | 0.11 | 0.0915 | 0.066 | 0.0346 | 0.0247 | 0.491 | 0.161 | 0.149 | 0.18 | 0.173
11 | HCC-78 | 0.963 | 1.01 | 0.83 | 0.96 | 1.04 | 0.758 | 0.688 | 0.581 | 0.544 | 0.451 | 0.458 | 0.433 | 0.382 | 0.272 | 0.241 | 0.912 | 0.879 | 0.901 | 0.899 | 0.901
12 | PC-14 | 0.348 | 0.23 | 0.261 | 0.258 | 0.377 | 0.51 | 0.343 | 0.0811 | 0.146 | 0.128 | 0.114 | 0.0887 | 0.0551 | 0.0482 | 0.0711 | 0.0843 | 0.143 | 0.13 | 0.131 | 0.146
13 | NCI-H2087 | 0.609 | 0.62 | 0.575 | 0.567 | 0.708 | 0.175 | 0.179 | 0.189 | 0.179 | 0.163 | 0.187 | 0.236 | 0.217 | 0.145 | 0.14 | 0.734 | 0.678 | 0.633 | 0.587 | 0.63
14 | HOP-62 | 0.385 |  | 0.425 | 0.503 | 0.688 | 0.358 | 0.338 | 0.262 | 0.202 | 0.187 | 0.108 | 0.141 | 0.0882 | 0.0978 | 0.132 | 0.576 | 0.305 | 0.252 | 0.39 | 0.313
15 | EKVX | 0.783 | 0.949 | 0.803 |  | 0.851 | 0.254 | 0.25 | 0.259 | 0.221 | 0.23 | 0.551 | 0.454 | 0.322 | 0.252 | 0.232 | 0.512 | 0.412 | 0.384 |  | 0.441
16 | EMC-BAC-2 | 0.474 |  | 0.476 | 0.502 | 0.402 |  | 0.935 | 0.795 | 0.841 | 0.8 |  | 0.405 | 0.371 | 0.298 | 0.294 | 0.565 | 0.47 | 0.433 | 0.464 | 0.477
17 | HARA | 0.626 | 1.22 | 0.675 | 1.01 | 0.692 | 0.285 | 0.454 | 0.491 | 0.228 | 0.304 | 0.379 | 0.248 | 0.28 | 0.147 | 0.168 | 0.194 | 0.248 | 0.28 | 0.303 | 0.299
